Measured values: article PMC2923189, “An Oligopeptide Transporter of Mycobacterium tuberculosis Regulates Cytokine Release and Apoptosis of Infected Macrophages” (PLoS ONE, 2010)

What was measured:
[1] = target: T1, OppAMTB (Mycobacterium tuberculosis, UniProt P9WGU5)
T1 construct: gene oppA

[2] = target: OppA of M. tuberculosis (OppAMTB), substrate-binding polypeptide of the Rv1280c-Rv1283c peptide transporter, recombinant wild type (Mycobacterium tuberculosis) (UniProt P9WGU5); test: radioligand binding
OppA of M. tuberculosis (OppAMTB), substrate-binding polypeptide of the Rv1280c-Rv1283c peptide transporter, recombinant wild type (Mycobacterium tuberculosis), sequence (P9WGU5 57-591): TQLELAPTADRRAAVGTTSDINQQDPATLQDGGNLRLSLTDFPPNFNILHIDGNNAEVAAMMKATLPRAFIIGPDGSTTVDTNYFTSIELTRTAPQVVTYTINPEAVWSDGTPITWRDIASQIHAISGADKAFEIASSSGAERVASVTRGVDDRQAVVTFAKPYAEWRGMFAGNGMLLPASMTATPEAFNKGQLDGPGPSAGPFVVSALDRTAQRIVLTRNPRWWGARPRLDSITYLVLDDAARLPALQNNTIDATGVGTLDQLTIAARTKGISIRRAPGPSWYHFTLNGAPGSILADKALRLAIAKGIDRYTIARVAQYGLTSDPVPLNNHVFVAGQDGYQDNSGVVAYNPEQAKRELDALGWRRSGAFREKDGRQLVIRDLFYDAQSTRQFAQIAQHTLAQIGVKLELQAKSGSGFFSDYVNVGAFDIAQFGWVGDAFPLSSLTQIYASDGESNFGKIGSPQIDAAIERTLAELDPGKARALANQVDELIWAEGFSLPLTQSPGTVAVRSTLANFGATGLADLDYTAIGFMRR

T1 sequence (P9WGU5 57-591): as above

| Compound | % GSH binding with 1 mM competitor [1] | amount bound at 1 mM GSH (pmol GSH/mg protein) [2] |
| --- | --- | --- |
| N[C@@H](CS)C(=O)NCC(=O)O [cys-gly] | dipeptide glu-cys was a more efficient competitor of GSH binding than the peptide cys-gly |  |
| N[C@@H](CCC(=O)N[C@@H](CS)C(=O)O)C(=O)O [glu-cys] | dipeptide glu-cys was a more efficient competitor of GSH binding than the peptide cys-gly |  |
| glutathione (tripeptide) |  | 146 |
